System: D1-MSNs in the NAc core
Test: AMPA/NMDA ratio on D1-MSNs after in vivo treatment
Parameters: species or system mouse
Procedure: Repeated non-contingent administration of cocaine results in lower AMPA/NMDA ratios of excitatory inputs onto the NAc specifically on the D1-MSN subtype (Kim et al., 2011; Pascoli et al., 2012). To test whether the decrease in AMPA/NMDA ratios after repeated drug administration is due to the increase in TNFα expression, the AMPA/NMDA ratio was evaluated on D1 and D2 MSNs in the NAc core following cocaine or saline administration in WT and TNFα^−/− mice. […] This is consistent with the exocytosis of AMPARs observed with direct stimulation of D1Rs on MSNs (Mangiavacchi and Wolf, 2004). […] To test the hypothesis that potentiated D1-MSNs are more sensitive to TNFα, TNFα mice were treated with a single injection of cocaine and the effect of a low level of TNFα (10 ng/ml) on AMPA/NMDA ratios was evaluated. […] This treatment had no effect on D2-MSNs (FIG. 9B). To test whether cocaine-induced TNFα signaling would occlude further TNFα synaptic depression, wildtype animals were treated with cocaine for 5 days, and then treated striatel slices ex-vivo with TNFα (100 ng/ml). The AMPA/NMDA ratio on D1-MSNs (already reduced compared to saline treated animals; FIG. 5E) was not further reduced by treatment with TNFα (FIG. 5G).
Because depotentiation of MSNs reduced cocaine-induced behavioural sensitization (Pascoli et al., 2012), it was tested whether re-activation of microglia would depress NAc synapses and suppress sensitization. To do this, monophosphoryl lipid A (MPLA), a detoxified variant of LPS, was used (Casella and Mitchell, 2008). MPLA acts as a weak TLR4 agonist that is at least 100-fold less pyrogenic than LPS (Cluff, 2010) and is used in humans as an adjuvant for several vaccine formulations. […] It was verified that MPLA activates microglia in the striatum, by injecting 10 μg MPLA IP after 10 days withdrawal from cocaine. […] This is consistent with previous observations that MPLA acts as a microglia modulator (Michaud et al., 2013). […] It was next tested if MPLA treatment would depress synaptic strength in the NAc core. After 10 days of withdrawal, animals were injected with MPLA and evaluated 24 hours later for AMPA/NMDA ratios on D1-MSNs.
240 μm thick coronal slices containing the nucleus accumbens were prepared from brains of 8-9 week-old mice (with fluorescent D1-MSNs). After a 1 h recovery period, slices were placed in a submersion-type recording chamber and perfused (1.5-2 ml/min) at 30° C. with a bicarbonate-buffered artificial CSF saturated with 95% O2/5% CO2 and containing (in mM): 119 NaCl, 2.5 KCl, 1 NaH2PO4, 1.3 MgCl2, 2.5 CaCl2, 26.2 NaHCO3, 11 glucose, and 0.05 picrotoxin. Whole-cell voltage-clamp recordings from medium spiny neurons in the nucleus accumbens core were obtained under visual control using infrared-differential interference contrast microscopy. Whole-cell electrodes (2-4 MΩ) were filled with internal solution containing the following (in mM): 120 CsMeSO3, 15 CsCl, 8 NaCl, 0.2 EGTA, 10 HEPES, 2 Mg-ATP, 0.3 Na-GTP, 10 tetraethylammonium, and 5 QX-314 [5-N-(2,6-dimethylphenylcarbamoylmethyl)triethylammonium bromide] (308-310 mOsm). pH was adjusted to 7.3 with CsOH. Cells with series resistance above 25 MΩ or a 20% change over time were excluded. Synaptic currents were evoked using stainless-steel bipolar stimulating electrodes placed 100-150 μm rostral to the recorded neurons. EPSCs were acquired with an Axopatch 200B (Molecular Devices), filtered at 2 kHz, and digitized at 10 kHz. Acquisition and analysis was performed using pCLAMP 10.2 (Molecular Devices). To calculate AMPA/NMDA ratios, evoked synaptic responses were collected at −70 mV to measure AMPAR-mediated EPSCs and at +40 mV to measure NMDAR-mediated EPSCs. Typically, 20 responses were averaged to generate an average response. The peak AMPA response was used to calculate the AMPAR component and the amplitude at 40 ms post the AMPAR peak response was used to calculate the slower NMDA component at +40 mV to calculate the AMPA/NMDA ratio.

Row | Compound | mean AMPA/NMDA ratio, D1 (TNFα−/− mice, 1 day cocaine 15 mg/kg) | mean AMPA/NMDA ratio, D1 (TNFα−/− mice, 5 days cocaine 15 mg/kg) | mean AMPA/NMDA ratio, D1 (WT mice, 1 day cocaine 15 mg/kg) | mean AMPA/NMDA ratio, D1 (WT mice, 5 days cocaine 15 mg/kg) | AMPA/NMDA ratio in D1-MSNs vs saline treated controls (MPLA 10 μg, 24 hours after injection, after 10 days withdrawal from cocaine)
1 | COC(=O)[C@H]1[C@@H](OC(=O)c2ccccc2)C[C@@H]2CC[C@H]1N2C [cocaine] | 4.28±0.35 | 4.97±083 | 3.38±0.57 | 2.73±0.35 | –
2 | monophosphoryl lipid A [MPLA] | – | – | – | – | significantly reduced

Source: US10328092B2, “Methods and compositions for treatment of drug addiction” (The Royal Institution for the Advancement of Learning / …, priority 2015, dated 2019)
